Assay [1] has as its system ischemic hindlimbs. Description: hindlimb ischemia model, laser Doppler perfusion imaging of limb blood perfusion. It is filed as in vivo, C57BL/6 wild-type mice. Particulars: for Ischemic/Non-ischemic Perfusion Ratio (%) 7 days: 7 days after surgery, 50 μl sustained-release alginate gel formulation, 10 μM peptide (Bolus: bolus formulation of 29-mer), single intramuscular injection to gracilis muscle; for Ischemic/Non-ischemic Perfusion Ratio (%) 21 days: 21 days after surgery; for Ischemic/Non-ischemic Perfusion Ratio (%) 21 days / Ischemic/Non-ischemic Perfusion Ratio (%) 28 days: sustained-release formulation (Bolus: bolus 29-mer), single intramuscular injection; for Ischemic/Non-ischemic Perfusion Ratio (%) 28 days: 28 days (four weeks) after surgery; for Ischemic/Non-ischemic Perfusion Ratio (%) Pre OP: before surgery (baseline); for Ischemic/Non-ischemic Perfusion Ratio (%) Pre OP / Ischemic/Non-ischemic Perfusion Ratio (%) Post OP: LDPI; for Ischemic/Non-ischemic Perfusion Ratio (%) Post OP: immediately after surgery. How it is done:
6-week-old female C57BL/6 wild-type mice were anesthetized by an intraperitoneal injection of a mixture of zoletil (6 mg/kg) and xylazine (3 mg/kg). Hair was removed from the hindquarter with a depilating cream. To establish hindlimb ischemia, unilateral external iliac and femoral arteries and veins were ligated, cut, and excised. After surgery, the mice were randomly assigned to several experimental groups (n=6, each group) and treated as follows. In the blank control group, the mice were treated with 50 μl of blank alginate gel, whereas in the bolus control group, the mice received the bolus formulation containing 29-mer. In the PEDF peptide/alginate gel treatment groups, the mice received 50 μl of the sustained-release formulation, which comprised either 29-mer, 24-mer, or 20-mer. Additionally, in a PEDF 18-mer control group, mice were treated with a sustained-release formulation containing a PEDF 18-mer peptide. Treatments were applied by way of a single intramuscular injection to the gracilis muscle immediately after femoral artery and vein excision operation. The incision was closed after the wound was irrigated with sterile saline.
A laser Doppler perfusion imaging (LDPI) analyzer (Moor Instruments, USA) was used to quantify hindlimb blood perfusion before surgery (pre OP), immediately after surgery (post OP), and over time after surgery. To minimize vasoconstriction by anesthetic heat loss, animals were kept on a heating plate at 37° C. for 5 min before measurement. Representative LDPI images illustrating the blood perfusion of ischemic hindlimbs over a time period of 4 weeks were provided in FIG. 2 in which dark blue color represents low blood flow. Blood perfusion is expressed as LDPI index representing the ratio of operated (ischemic) versus non-operated (non-ischemic) limb blood flow of the same mouse, and the results were summarized in FIG. 3 and Table 1 (n 6).

Assay [2] deals with aortic ring explants. Description: rat aortic ring sprouting assay (ex vivo neovessel sprouting). It is filed as cell-based. Particulars: day 4; 50 ng/ml PEDF peptide, 50 ng/ml VEGF-A, 20 ng/ml FGF-2; MCDB131, 1% FBS, Matrigel. Here is the method:
To further confirm the neovessel development promoted by PEDF peptides, rat aortic ring sprouting assay was performed. Thoracic aortas were removed from euthanized rats and gently stripped of peri-aortic fibroadipose tissue. Aortas were sectioned into about 2-mm length rings, which were then embedded in a growth factor-reduced Matrigel. Gels containing the aortic rings were polymerized in 12-well plates incubated at 37° C. for 30 minutes. 1 ml of MCDB131 medium supplemented with 100 units/ml penicillin and […] streptomycin, 1% FBS, and a supplemental agent (50 ng/ml VEGF-A, 20 ng/ml FGF-2, or 50 ng/ml 29-mer, 24-mer, 20-mer, Mo 29-mer, Mo 20-mer, 25-mer, or 18-mer) were added to the Matrigel-containing explants. The cultures were propagated at 37° C. in a humidified incubator for up to 4 days, with media changes every other day. Neovessel sprouting was assessed until day 4 using an inverted microscope platform (Leica) with bright-field optics; representative photographs were provided in FIG. 6. Quantification of neovessel sprouting was assessed using Image-Pro Plus 6.0 software (Dendrites program). The experiment was repeated in triplicate.

In assay [3] the test system is tendo Achilles. Description: tendo Achilles injury model, histology and collagen in regenerated area. Type of assay: in vivo, Sprague-Dawley rats. Particulars: three weeks after tendon injury; for Collagen in Regenerated Area (%): 150 μl sustained-release formulation (Bolus: bolus 29-mer) subcutaneously near tendon lesion. Here is the method:
De-paraffinized tendon tissue sections were stained using Masson's Trichrome according to the manufacturer's instructions. For semi-quantitative analysis of collagen area, 10 fields from each slide were randomly selected under a light microscope, and the repairing area per intact tendon area of the cross section (mm^2/mm^2) was measured using the Image-Pro Plus 4.5.1 system.
(§1) To investigate the effects of the present PEDF peptides on tendon regeneration, a rat model with tendon injury was established as follows. Adult 10-week-old male Sprague-Dawley rats (total n=50; initial body weight=312±11 g) were anesthetized by an intraperitoneal injection of a xylazine (10 mg/kg). Then, the left tendo Achilles injury was created by full-thickness insertion of an 18-gauge needle through tendo Achilles 1 cm proximal to its insertion into the calcaneum. This created a horizontal (transaction) wound which was flanked by intact tendon tissue on both sides to prevent the retraction of severed ends.
The rats were randomly assigned (n=10/group) to five experimental groups and treated as follows. In the blank control group, the mice were treated with 150 μl of blank alginate gel. For the bolus control group, 150 μl of the bolus formulation (29-mer) was administered. In the treatments groups, the mice received 150 μl of the sustained-release formulation (29-mer, 24-mer, or 20-mer). Treatments were injected subcutaneously near tendon lesion immediately after the injury, and the incision was closed after the wound was irrigated with sterile saline.
Three weeks after tendon injury, histologic analysis was performed to observe the healing of the tendon. As could be seen in the upper panel of FIG. 10, in animals treated with blank control, a broad band of disorganized fibrous scar was formed between the two cut ends, and the pink stained collagen bundle was minimal in the scar tissue. […] Also, the fibrous tissue in the scar was more organized and in parallel direction in the 29-mer treatment group.
Quantitative analysis was also performed to assess the percentage of collagen (%) in the regenerated area, and results were summarized in Table 7.

Assay [4] has as its system tendon stem cells (TSCs) in injured tendon. The assay can be described thus: tendo Achilles injury model, in vivo TSC proliferation (nucleostemin staining). Also noted: species or system Sprague-Dawley rats. Particulars: injured tendon specimens of Example 4.1; sustained-release formulation (Bolus: bolus 29-mer). Here is the method:
De-paraffinized tissue sections or 4% paraformaldehyde fixed rabbit tendon stem cells (TSCs) were blocked with 10% goat serum and 5% BSA for 1 hour. Double staining was done using primary antibodies against α-SMA (1:100 dilution), IB4 (5 μg/ml), Pax7 (1:100 dilution), nucleostemin (1:100 dilution) and type I collagen 1A1 (1:50) at 37° C. for 2 hours, followed by incubation with the appropriate rhodamine- or FITC-conjugated donkey IgG for 1 hour at RT. Nuclei were located by counterstaining with Hoechst 33258 for 7 minutes. Images were captured using a Zeiss epifluorescence microscope with a CCD camera.
as §1
The rats were randomly assigned (n=10/group) to five experimental groups and treated as follows. In the blank control group, the mice were treated with 150 μl of blank alginate gel. For the bolus control group, 150 μl of the bolus formulation (29-mer) was administered. […]
Specimens obtained from animals in different experimental groups of Example 4.1 were stained for nucleostemin (green) to investigate whether in vivo TSC proliferation would be promoted by the present sustained-release formulation during the tendon wound healing process. In quantitative analysis, ten randomly selected microscopic fields in each experimental group were photographed, and the percentage of nucleostemin-positive cells per total cells (counterstained by Hoechst 33258; blue) was calculated.

The text below walks through data of patent publication US9884012B2, “Use of PEDF-derived polypeptides for promoting muscle or tendon regeneration or arteriogenesis” (MacKay Memorial Hospital, priority 2012, dated 2018).

“And” between values parts separate entries of the source, which are not always exact repeats. Identical values can stand only once. Marks after values point to notes of the source that are not given here.

For the sequence “SLGAEQRTESIIHRALYYDL [20-mer, synthetic peptide corresponding to residues 93-112 of human PEDF]”, in assay [1], the “Ischemic/Non-ischemic Perfusion Ratio (%) 7 days” value stood at 43.3 ± 7.2 %; the “Ischemic/Non-ischemic Perfusion Ratio (%) 21 days” value stood at 75.5 ± 5.2 %; the “Ischemic/Non-ischemic Perfusion Ratio (%) 28 days” value is 93% and 92.7 ± 3.0 %; the “Ischemic/Non-ischemic Perfusion Ratio (%) Pre OP” value was found to be 98.0 ± 7.8%. Further, the “Ischemic/Non-ischemic Perfusion Ratio (%) Post OP” value in assay [1] is recorded as 4.6 ± 0.64%. In addition, in assay [2], the “Neovessel Sprouting Fold” value is 6.5* fold of untreated aortic ring. Besides, in assay [3], the “Collagen in Regenerated Area (%)” value is 82.01 ± 6.55%. In assay [4], the “Nucleostemin Labeling Index (%)” value is listed as 15.0 ± 3.9 %.
In the case of “SLGAEQRTESIIHRALYYDLISSPDIHGT [29-mer, synthetic peptide corresponding to residues 93-121 of human PEDF]”, in assay [1], the “Ischemic/Non-ischemic Perfusion Ratio (%) 7 days” value was found to be 44.8 ± 2.0 %; the “Ischemic/Non-ischemic Perfusion Ratio (%) 21 days” value stood at 101 ± 7.0 %; the “Ischemic/Non-ischemic Perfusion Ratio (%) 28 days” value is 105% and 105 ± 4.8 %; the “Ischemic/Non-ischemic Perfusion Ratio (%) Pre OP” value was determined as 108.2 ± 8.8%. In addition, the “Ischemic/Non-ischemic Perfusion Ratio (%) Post OP” value in assay [1] was found to be 7.0 ± 3.1%. The “Neovessel Sprouting Fold” value in assay [2] is 5.6* fold of untreated aortic ring. Moreover, the “Collagen in Regenerated Area (%)” value in assay [3] was 88.75 ± 1.89%. The “tendon healing, histology of cut ends” value in assay [3] (sustained-release formulation, in words) is listed as “healed with much lesser scar tissue”. Besides, in assay [4], the “Nucleostemin Labeling Index (%)” value is 16.4 ± 2.9 %.
In the case of “SLGAEQRTESIIHRALYYDLISSP [24-mer, synthetic peptide corresponding to residues 93-116 of human PEDF]”, in assay [1], the “Ischemic/Non-ischemic Perfusion Ratio (%) 7 days” value is 53.1 ± 0.37 %; the “Ischemic/Non-ischemic Perfusion Ratio (%) 21 days” value is 86.1 ± 5.9 %; the “Ischemic/Non-ischemic Perfusion Ratio (%) 28 days” value is 92% and 91.8 ± 5.5 %; the “Ischemic/Non-ischemic Perfusion Ratio (%) Pre OP” value was 91.5 ± 5.6%. The “Ischemic/Non-ischemic Perfusion Ratio (%) Post OP” value in assay [1] is on record as 8.0 ± 0.03%. The “Neovessel Sprouting Fold” value in assay [2] is given as 6.2* fold of untreated aortic ring. Besides, the “Collagen in Regenerated Area (%)” value in assay [3] is given as 85.75 ± 2.56%. In assay [4], the “Nucleostemin Labeling Index (%)” value was determined as 16.8 ± 4.2 %.
